Experiments:
Assay type in all cases: cell-based, human
[1] = test system: caspase-3 and -7 in HAP-1; test: luminescent caspase activity assay; conditions: pentathiepins IC90, doxorubicin 0.5 µM, 24 h
From the text: To further corroborate this mode of cell death, we performed a luminescent caspase assay by measuring caspase-3 (cas-3) and caspase-7 (cas-7) activities (Figure 16). Both are executioner caspases that are present as zymogens (35 kDa) and become active after being cleaved (fragment sizes 17 and 19 kDa) by initiator caspases. Activated cas-3 and -7 in turn have several other substrates, including PARP1. In this assay, a precursor with a caspase-specific target sequence was converted into its luminescent form by active caspase-3 or -7, thereby emitting light that can be quantified.
To study the activation of the effector caspases -3 and -7, we performed a luminescence-based assay according to the manufacturer’s instructions (Caspase-Glo, Promega, Walldorf, Germany). Briefly, 5000 cells were seeded in 0.1 mL per well of a 96-well plate and allowed to adhere overnight. […] Afterwards, the standard protocol was followed, including a 30 min incubation time before measurement of luminescent signals by using the Spectramax i3x (Molecular Devices, Sunnyvale, CA, USA). After subtraction of the background luminescence the positive control and treatment conditions were related to the negative control.

[2] = test system: PATU-8902; test: DCFDA flow cytometric ROS assay, acute; conditions: 25 µM, 15 min
Description: (§1) According to the hypothesized mechanism of action (see Figure 3), pentathiepins can create oxidative stress via generation of reactive sulfur precursors. We have previously reported that a representative pentathiepin can increase the intracellular levels of ROS in two cancer cell lines. This effect was thus further evaluated with the new compounds in seven cell lines (Figure 8). The cells were incubated for 15 min with 25.0 µM pentathiepin and subsequently analyzed by using the intracellular ROS sensor 2′,7′-dichlorodihydrofluorescein diacetate (DCFDA) by flow cytometry.
(§2) In order to quantify intracellular ROS, we performed a flow cytometric assay based on the ROS-sensor 2′,7′-dichlorofluorescein diacetate (DCFDA). For acute effects of pentathiepins on intracellular ROS levels, the cells were stained with DCFDA first and subsequently incubated with 25 µM of compound for 10 min. […] Per condition, 250,000 cells were seeded in 2 mL of medium per well of a 6-well plate and allowed to adhere overnight. For measurement of acute ROS, the cells were stained with 1 mL of a 20 µM DCFDA-PBS solution for 30 min under standard incubation conditions. Afterwards, the solution was discarded, and the monolayer washed twice with 1 mL of PBS before 3 mL of medium containing 25 µM of pentathiepin was added for 10 min at 37 °C. After removing the solution and washing again with PBS, the cells were detached by using 0.5 mL of a diluted trypsin/EDTA-PBS solution (25%) and harvested with 1 mL of culture medium by carefully rinsing the wells. The cell suspension was transferred to 1.5 mL tubes, centrifuged for 5 min at 500× g, and washed with 1 mL of PBS. After removing the supernatant, each pellet was resuspended in 0.5 mL of PBS for measurement via the MACSquant Analyzer 10 at λEx/Em = 488/530 nm. Relative ROS levels resulting from treatment with pentathiepin were calculated by relating the fluorescence intensity of treated samples to the negative control. For the experiments covering periods of 24 and 48 h, the cells were incubated with the compounds first and stained with DCFDA afterwards. To assess the influence of additional GSH, we included 3 or 30 µM GSH to the medium containing 25 µM of pentathiepin, and the protocol was followed as described.

[3] = test system: DanG; test: DCFDA flow cytometric ROS assay, acute; conditions: 25 µM, 15 min
Description: as §1, §2

[4] = test system: PARP1 in HAP-1.KO.GPx1; test: Western blot of cleaved PARP1; conditions: pentathiepins IC90, doxorubicin 0.5 µM, 24 h
Description: (§3) In addition to general flow cytometric and microscopic analyses, Western blotting was performed to detect the apoptosis-relevant protein PARP1 (poly(ADP-ribose) polymerase 1) and its cleavage fragment (Figure 17 and Figures S29–S34). Full-length PARP1 (116 kDa) is involved in DNA repair, and a cleavage by caspases (fragment sizes 24 and 89 kDa) caused by caspase-3 and -7 is a hallmark of late apoptosis.
(§4) All detected specific bands were normalized to the total protein load per lane by the TGX stain-free gel system from Bio-Rad.
(§5) All Western blot analyses were performed with reagents, material, and devices purchased from Bio-Rad (Feldkirchen, Germany) if not stated otherwise. To obtain protein lysates, we seeded cells and treated them as described for the other methods. […] Cells were harvested by trypsinization and centrifugation for 5 min at 500× g. After a washing step with PBS, the cell pellet was resuspended in lysis buffer (Tris 50 mM (pH 7.4), 100 mM NaCl, 100 mM NaF, 5 mM EDTA, 0.2 mM Na3VO4, 0.1% Triton-X, and 1% protease inhibitor cocktail added immediately before use). Lysis was supported by incubating the samples for 10 min in an ultrasonic bath before centrifuging for 10 min at 18,000 × g and 4 °C. Protein quantification was performed via the Bradford method using ROTI®nanoquant reagent (Carl Roth GmbH, Karlsruhe, Germany) and bovine serum albumin as calibration standard. For electrophoretic separation, 15–40 µg of protein was loaded per well of a polyacrylamide gel (Mini- or Midi-Protean® TGX stain-free gel, Bio-Rad, Feldkirchen, Germany), and subsequent blotting was performed with Trans-Blot®Turbo™TransferPack Mini or Midi PVDF membranes from Bio-Rad (Feldkirchen, Germany). The membranes were blocked with a 10% non-fat milk powder solution in Tris-buffered saline (TBS; 2.42 g/L Tris, 8.48 g/L NaCl in water) plus 0.5% Tween-20 (TBST) for 1 h at RT. Incubation with primary antibodies took place over night at 4 °C in a 1:1000 dilution in TBST containing BSA (1%). The secondary antibodies conjugated to horse-radish peroxidase were diluted 1:10,000 in TBST and 1% BSA, and incubated for 4 h at RT. A detection step followed, applying Clarity™Western ECL substrate with subsequent imaging via the INTAS Advanced Fluorescence Imager. Between all incubation steps, the blots were washed three times for 10 min with TBST. The bands were quantified with the ImageLab software and normalized using the total protein quantification of the TGX stain-free gel system from Bio-Rad.

[5] = test system: PARP1 in Siso; test: Western blot of cleaved PARP1; conditions: IC90, 24 h
Description: as §3, §4, §5

[6] = test system: PARP1 in HAP-1; test: Western blot of cleaved PARP1; conditions: pentathiepins IC90, doxorubicin 0.5 µM, 24 h
Description: as §3, §4, §5

[7] = test system: PARP1 in A2780; test: Western blot of cleaved PARP1; conditions: IC90, 24 h
Description: as §3, §4, §5

Structure (SMILES)	caspase-3 and -7 activity vs solvent control [1]	intracellular ROS levels [2]	intracellular ROS levels [3]	cleaved PARP1 [4]	fraction of 89 kDa PARP1 [5]	cleaved PARP1 [6]	fraction of 89 kDa PARP1 [7]
CCOc1c2c(c3ccc(C(=O)N4CCCCC4)cn13)SSSSS2 [Compound 2, (6-Ethoxy-[1,2,3,4,5]pentathiepino[6,7-a]indolizin-9-yl)(piperidinyl)methanone]	statistically significant results	high levels of intracellular ROS were detected	high levels of intracellular ROS were detected	–	–	–	–
CCOc1c2c(c3ccc(C(=O)N4CCOCC4)cn13)SSSSS2 [Compound 3, (6-Ethoxy-[1,2,3,4,5]pentathiepino[6,7-a]indolizin-9-yl)(morpholino)methanone]	–	high levels of intracellular ROS were detected	high levels of intracellular ROS were detected	trends for increased levels	very small and only confirmed after treatment with pentathiepins 3 or 5	trends for increased levels	very small and only confirmed after treatment with pentathiepins 3 or 5
CCOc1c2c(c3ccc(C(=O)N(CC)CC)cn13)SSSSS2 [Compound 4, 6-Ethoxy-N,N’-diethyl-[1,2,3,4,5]pentathiepino[6,7-a]indolizine-9-carboxamide]	statistically significant results	high levels of intracellular ROS were detected	high levels of intracellular ROS were detected	–	–	–	–
CCOc1c2c(c3ccc(C(=O)N4CCN(C(=O)c5ccc(F)cc5)CC4)cn13)SSSSS2 [Compound 5, (6-Ethoxy-[1,2,3,4,5]pentathiepino[6,7-a]indolizin-9-yl)(4-(4-fluorobenzoyl)piperazinyl)methanone]	–	high levels of intracellular ROS were detected	high levels of intracellular ROS were detected	trends for increased levels	very small and only confirmed after treatment with pentathiepins 3 or 5	trends for increased levels	very small and only confirmed after treatment with pentathiepins 3 or 5
CCOc1c2c(c3ccc(C(=O)N4CCN(S(=O)(=O)c5ccc(C)cc5)CC4)cn13)SSSSS2 [Compound 6, (6-Ethoxy-[1,2,3,4,5]pentathiepino[6,7-a]indolizin-9-yl)(4-tosylpiperazinyl)methanone]	statistically significant results	–	–	relevant and significant quantities of cleaved PARP1	–	relevant and significant quantities of cleaved PARP1	–
